Measured values published in patent US8236788B2, “Azolylmethyloxiranes, use thereof for controlling plant pathogenic fungi, and agents containing the same” (BASF SE, priority 2006, dated 2012).

Experiments:
Sphaerotheca fuliginea = assay: Activity against mildew on cucumber leaves, protective application (Sphrfu P1), greenhouse; type: in vivo, Sphaerotheca fuliginea on cucumber seedlings; settings: 63 ppm active compound, protective spray 20 hours before inoculation, assessed visually after 7 days; untreated plants 90% infected
Description: (§1) The active compounds were prepared separately or jointly as a stock solution comprising 25 mg of active compound which was made up to 10 ml using a mixture of acetone and/or DMSO and the emulsifier Wettol EM 31 (wetting agent having emulsifying and dispersing action based on ethoxylated alkylphenols) in a volume ratio of solvent/emulsifier of 99:1. The mixture was then made up to 100 ml with water. This stock solution was diluted with the solvent/emulsifier/water mixture described to give the concentration of active compounds stated below.
At the cotyledon stage, leaves of potted cucumber seedlings were sprayed to run off point with an aqueous suspension having the active compound concentration below. 20 hours after the spray coating had dried on, the plants were inoculated with an aqueous spore suspension of mildew of cucumber (Sphaerotheca fuliginea). The plants were then cultivated in a greenhouse at temperatures between 20 and 24° C. and 60 to 80% relative atmospheric humidity for 7 days. The extent of the mildew development was then determined visually in % infection of the cotyledon area.

Puccinia recondita = assay: Protective activity against brown rust of wheat (Puccrt P1), greenhouse; type: in vivo, Puccinia recondita on wheat seedlings; settings: 63 ppm active compound, protective spray 1 day before inoculation, assessed visually after further 7 days; untreated plants 90% infected
Description: as §1
Leaves of potted wheat seedlings were sprayed to run off point with an aqueous suspension having the active compound concentration stated below. The next day, the treated plants were inoculated with a spore suspension of brown rust of wheat (Puccinia recondita). The plants were then placed in a chamber with high atmospheric humidity (90 to 95%) at 20 to 22° C. for 24 hours. During this time, the spores germinated and the germ tubes penetrated into the leaf tissue. The next day, the test plants were returned to the greenhouse and cultivated at temperatures between 20 and 22° C. and 65 to 70% relative atmospheric humidity for a further 7 days. The extent of the rust fungus development on the leaves was then determined visually.

Structure (SMILES): N#Cc1ccc(C2(Cn3cncn3)OC2c2ccccc2F)c(F)c1 (stereo not drawn) [Compound 69.3, 4-{anti-2-[(1H-1,2,4-triazol-1-yl)methyl]-3-[2-fluorophenyl]oxiran-2-yl}-3-fluorobenzonitrile]
- infection of the cotyledon area (Sphaerotheca fuliginea): 1%
- infection (extent of rust fungus development on the leaves) (Puccinia recondita): 0%
